Measured values reported in ChEMBL document CHEMBL5727017, “N-arylmethyl sulfonamide negative modulators of NR2A” (2018).

Experiment: Biological Assay: Cell Culture and plating: HEK293 cells expressing NR1/NR2A (Chantest, Cleveland, Ohio) were grown to 70-80% confluency as an adherent monolayer in standard tissue culture flasks at 37° C., 5% CO2 per supplier's instructions. NR2A expression was induced by incubation with 0.3-0.4 μg/ml tetracycline in the presence of 4 mM ARL-15896 for 18-24 hours under the same growth conditions, then transferred to 30° C. for another 3-5 hours.After induction, cell culture medium was removed and cells were rinsed once with Ca2+ and Mg2+-free Dulbecco's phosphate buffered saline. Cells were then removed from the flask using TrypLE Express (Life Technologies) according to the manufacturer's instructions and collected to 50 ml centrifuge tubes. Following two washes in Ca2+/Mg2+-free HBSS with 20 mM HEPES (HHnoCa), cells were counted and viability assessed using trypan blue. To load cells with Ca2+-sensitive dye, they were resuspended in fluo-8 plus Component B (AAT Bioquest Products) diluted in HHnoCa and incubated 15 minutes at 37° C., followed by 30 minutes at room temp (in dark). Cells were then washed and resuspended in HHnoCa to remove extracellular dye and plated in 384-well plates (Falcon, uncoated) at 20,000-30,000 cells/well in a final volume of 25 μL/well.

`Cc1ncc(CNC(=O)c2ccc(CNS(=O)(=O)c3c(C)noc3C)cn2)s1` showed an IC50 of 10 µM.
